Assay results as given in PubChem BioAssay (NCI).
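Step 1: Grow cells in 96-well plates. Step 2: Expose to compound for 48 hours at 5 concentrations. Step 3: Interpolate endpoints linearly; if unreached, use highest concentration. TGI is the concentration that stops growth completely.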

Legend:
Assay in all cases: NCI tumour cell line growth inhibition, 48 h
ACHN renal = system: ACHN renal
BT-549 breast = system: BT-549 breast
HCC-2998 colon = system: HCC-2998 colon
K-562 leukemia = system: K-562 leukemia
LOX IMVI melanoma = system: LOX IMVI melanoma
NCI-H460 lung = system: NCI-H460 lung
OVCAR-4 ovarian = system: OVCAR-4 ovarian
OVCAR-5 ovarian = system: OVCAR-5 ovarian
SK-MEL-28 melanoma = system: SK-MEL-28 melanoma
SR leukemia = system: SR leukemia
U251 CNS = system: U251 CNS
UACC-257 melanoma = system: UACC-257 melanoma
EKVX NSCLC = system: EKVX NSCLC
NCI-H226 lung = system: NCI-H226 lung
RXF 393 renal = system: RXF 393 renal

| Structure (SMILES) | TGI (ACHN renal) [µM] | TGI (BT-549 breast) [µM] | TGI (HCC-2998 colon) [µM] | TGI (K-562 leukemia) [µM] | TGI (LOX IMVI melanoma) [µM] | TGI (NCI-H460 lung) [µM] | TGI (OVCAR-4 ovarian) [µM] | TGI (OVCAR-5 ovarian) [µM] | TGI (SK-MEL-28 melanoma) [µM] | TGI (SR leukemia) [µM] | TGI (U251 CNS) [µM] | TGI (UACC-257 melanoma) [µM] | TGI (EKVX NSCLC) [µM] | TGI (NCI-H226 lung) [µM] | TGI (RXF 393 renal) [µM] |
| --- | --- | --- | --- | --- | --- | --- | --- | --- | --- | --- | --- | --- | --- | --- | --- |
| COc1ccc(-c2cc(-c3ccc(Cl)cc3)n(C3OC(CO)C(O)C(O)C3O)c(=S)c2C#N)cc1 (stereo unspecified) | > 100 | > 100 | > 100 | > 100 | > 100 | > 100 | > 100 | 82.2 | > 100 | > 100 | > 100 | > 100 | – | – | – |
| CC1(C)OCC2(CO1)CSCCCSCC1(COC(C)(C)OC1)CSCCCSC2 | – | > 100 | > 100 | > 100 | > 100 | > 100 | > 100 | > 100 | > 100 | > 100 | > 100 | > 100 | > 100 | – | – |
| CCSc1c(C)c2c(n(Cc3ccc(OC)cc3)c1=O)Cc1ccccc1C2 | 84.2 | 93.4 | 41.6 | 60.9 | 76.2 | 27.7 | > 100 | > 100 | > 100 | 21.3 | 82.4 | 44.3 | 96.9 | > 100 | > 100 |
| O=C(O)c1nc2cc(C(F)(F)F)ccc2nc1Nc1ccc(Cl)c(Cl)c1 | 36 | 27.5 | – | > 100 | 31.2 | 26.3 | 65.9 | 32 | – | 96.3 | 33.6 | 64.5 | 42.4 | 34 | 37.5 |
| CN(C)CCNc1ccc2ncnc3c2c1C(=O)c1ccccc1-3 | 8.77 | 21 | 2.92 | 6.75 | 10.5 | 5.01 | 4.27 | 3.42 | 10.9 | 0.915 | 17.9 | 11.5 | 5.67 | 3.74 | 2.32 |
| O=C1CSC(/C=C/c2ccccc2)N1c1ccc(-c2ccc(-n3c(-c4ccccc4)nc4ccccc4c3=O)cc2)cc1 (stereo unspecified) | 94.9 | 39.2 | > 100 | > 100 | 32.7 | > 100 | 63 | 41.6 | 53.3 | > 100 | 88.5 | 93.1 | 73.1 | – | – |
| CN(C)/C(N)=N/C(N)=Nc1cccc(Cl)c1 | > 100 | 92.5 | > 100 | > 100 | > 100 | > 100 | > 100 | > 100 | > 100 | > 100 | > 100 | > 100 | > 100 | 79.3 | – |
| COc1cc(O)c2c(=O)c(OC)c(-c3ccc4c(c3)OCO4)oc2c1 | > 100 | > 30 | > 100 | > 100 | > 100 | > 100 | – | > 100 | > 100 | > 100 | 30.2 | > 100 | > 100 | > 100 | > 100 |
| N#Cc1nc(C2CC2)oc1N | > 100 | > 100 | > 100 | > 100 | > 100 | – | > 100 | > 100 | > 100 | > 100 | > 100 | > 100 | > 100 | > 100 | > 100 |
| Cc1nc2ccccc2c(=O)n1-c1n[nH]c2ccccc12 | > 100 | > 100 | > 100 | > 100 | > 100 | > 100 | > 100 | > 100 | > 100 | > 100 | > 100 | > 100 | > 100 | > 100 | > 100 |
| CC1C2=C(CC(C)(C)CC2=O)NC2=C1C(=O)CC(C)(C)C2 | > 100 | > 100 | > 100 | > 100 | > 100 | > 100 | > 100 | > 100 | > 100 | > 100 | > 100 | – | > 100 | > 100 | – |
| CC(C)(C)OC(=O)NC1CC=CCC1NC(=O)OC(C)(C)C (stereo unspecified) | > 100 | > 100 | > 100 | > 100 | > 100 | > 100 | > 100 | > 100 | > 100 | > 100 | > 100 | > 100 | – | > 100 | > 100 |
| COc1ccc(OC)c([N+](=O)[O-])c1-c1nc2sccn2c1/C=N/N=C(N)N | > 100 | > 100 | 79.4 | > 100 | > 100 | > 100 | – | > 100 | 68.3 | > 100 | > 100 | > 100 | > 100 | > 100 | > 100 |
| CSc1c(C#N)c(O)n(-c2ccc(C)cc2)c(=O)c1C#N | – | > 100 | > 100 | > 100 | > 100 | > 100 | > 100 | > 100 | > 100 | > 100 | > 100 | > 100 | > 100 | > 100 | > 100 |
| CSc1ccccc1P(c1ccccc1SC)c1ccccc1SC | > 100 | > 100 | – | > 100 | > 100 | – | > 100 | > 100 | > 100 | > 100 | > 100 | – | > 100 | > 100 | – |
| O=c1[nH]c(=O)n(C2CC(O)C(CO)O2)cc1OCCc1ccccc1 (stereo unspecified) | > 100 | > 100 | – | > 100 | > 100 | – | > 100 | > 100 | > 100 | > 100 | > 100 | > 100 | > 100 | > 100 | > 100 |
